Laboratory results as given in the supplement of paper PMC10307832.

Columns and labels:
Assay in all cases: relative viability (nuclei count vs DMSO), 5 days (fraction); higher = more cells survive
[1] = compound: c1ccc2c(CCNc3ccc(Nc4ccncc4)cc3)c[nH]c2c1 [Serdemetan] + CCNC(=O)c1noc(-c2cc(C(C)C)c(O)cc2O)c1-c1ccc(CN2CCOCC2)cc1 [Luminespib] (partner 0.01 µM)
Method in brief: (§1)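 Relative viability divides the nuclei count in treated wells by that in vehicle wells. Lung cancer cell lines were seeded in 1536-well plates, dosed by pin tool the next day, and fixed and stained after 5 days in one step with final 0.05% Triton X-100, 1% formaldehyde and 1 ug/ml Hoechst. Dosing was a single drug or a fixed anchor-drug dose plus five library-drug doses (not always all listed) in √10 steps, and values are medians of duplicate plates imaged at 4×.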

[2] = compound: c1ccc2c(CCNc3ccc(Nc4ccncc4)cc3)c[nH]c2c1 [Serdemetan] + Cc1nc(NC(=O)N2CCC[C@H]2C(N)=O)sc1-c1ccnc(C(C)(C)C(F)(F)F)c1 [Alpelisib] (partner 2 µM)
Method in brief: as §1

[3] = compound: C1CC(C2=C(C1)C3=C(N2)C=CC(=C3)Cl)C(=O)N [Selisistat] + N=C(N)NC(=N)NCCc1ccccc1 [Phenformin] (partner 250 µM)
Method in brief: as §1

[4] = compound: C1CC(C2=C(C1)C3=C(N2)C=CC(=C3)Cl)C(=O)N [Selisistat] + CC1(C)CCC(c2ccc(Cl)cc2)=C(CN2CCN(c3ccc(C(=O)NS(=O)(=O)c4ccc(N[C@H](CCN5CCOCC5)CSc5ccccc5)c(S(=O)(=O)C(F)(F)F)c4)cc3)CC2)C1 [Navitoclax] (partner 0.5 µM)
Method in brief: as §1

Cell Line | relative viability ([1]; first compound 0.04 µM) | relative viability ([1]; first compound 0.1265 µM) | relative viability ([1]; first compound 0.4 µM) | relative viability ([1]; first compound 1.265 µM) | relative viability ([1]; first compound 4 µM) | relative viability ([2]; first compound 0.04 µM) | relative viability ([2]; first compound 0.1265 µM) | relative viability ([2]; first compound 0.4 µM) | relative viability ([2]; first compound 1.265 µM) | relative viability ([2]; first compound 4 µM) | relative viability ([3]; first compound 0.4 µM) | relative viability ([3]; first compound 1.265 µM) | relative viability ([3]; first compound 4 µM) | relative viability ([3]; first compound 12.65 µM) | relative viability ([3]; first compound 40 µM) | relative viability ([4]; first compound 0.4 µM) | relative viability ([4]; first compound 1.265 µM) | relative viability ([4]; first compound 4 µM) | relative viability ([4]; first compound 12.65 µM) | relative viability ([4]; first compound 40 µM)
201T | 1.05 | 1.07 | 1.03 | 0.895 | 0.692 | 0.965 | 0.995 | 1.01 | 0.939 | 0.883 | 0.449 | 0.436 | 0.432 | 0.41 | 0.481 | 1.21 | 1.17 | 1.16 | 1.25 | 1.25
A549 |  |  |  |  |  | 0.753 | 0.722 | 0.727 | 0.569 | 0.252 | 0.192 | 0.17 |  | 0.123 | 0.145 | 1.27 | 1.14 | 1.34 | 1.28 | 1.28
A-427 | 0.934 | 0.924 | 0.953 | 0.742 | 0.49 | 1.05 | 1.05 | 1.1 | 0.833 | 0.561 | 0.261 | 0.383 | 0.266 | 0.255 | 0.327 | 0.98 | 0.986 | 1.04 | 0.878 | 1.11
ABC-1 | 0.581 | 0.648 | 0.515 | 0.567 | 0.516 | 1.16 | 1.14 | 0.965 | 0.812 | 0.486 | 0.221 | 0.213 | 0.265 | 0.265 | 0.263 |  |  |  |  | 
BEN | 0.24 | 0.2 | 0.461 |  | 0.329 | 0.929 | 1.02 | 0.987 | 0.99 | 0.824 | 0.246 | 0.286 | 0.256 | 0.239 | 0.275 | 0.0717 | 0.0697 | 0.0619 | 0.0731 | 0.0771
CAL-12T | 0.227 | 0.28 | 0.141 | 0.266 | 0.486 | 1.11 | 1.5 | 1.23 |  | 1.18 | 0.586 | 0.565 | 0.406 | 0.516 | 0.537 | 1.19 | 1.04 | 1.16 | 1.22 | 1.14
COR-L23 | 0.724 | 0.639 | 0.644 | 0.631 | 0.432 | 0.788 | 0.767 | 0.763 | 0.821 | 0.703 | 0.443 | 0.43 | 0.458 | 0.424 | 0.441 | 0.994 | 1.09 | 1.07 | 0.939 | 0.928
COR-L 105 | 1.3 | 0.911 | 0.64 | 0.693 | 0.588 | 0.906 | 1.08 | 0.922 | 1.04 | 0.865 | 0.479 | 0.439 |  | 0.371 | 0.421 | 0.635 | 0.763 | 0.671 | 0.815 | 0.823
Calu-6 |  |  |  |  |  | 0.934 | 1.01 | 0.929 | 0.788 | 0.674 |  |  |  |  |  | 0.832 | 0.779 | 0.84 | 0.82 | 0.789
ChaGo-K-1 | 0.688 | 0.463 | 0.445 | 0.27 | 0.227 |  |  |  |  |  | 0.488 | 0.458 | 0.439 | 0.422 | 0.485 | 0.959 | 1.1 |  | 0.881 | 0.901
EBC-1 |  |  |  |  |  | 0.739 | 0.865 | 0.752 | 0.793 | 0.623 |  |  |  |  |  | 0.526 | 0.416 | 0.433 | 0.448 | 0.459
EKVX | 0.947 | 0.925 | 0.861 |  | 0.585 | 0.876 | 0.911 | 0.804 | 0.676 | 0.619 | 0.221 | 0.243 | 0.222 | 0.23 | 0.249 | 0.905 | 0.918 | 0.745 | 0.874 | 0.945
EMC-BAC-2 | 1.14 | 1.12 | 1.13 | 0.616 | 0.636 | 0.727 | 0.712 | 0.727 | 0.662 | 0.548 | 0.514 | 0.502 | 0.567 | 0.517 | 0.493 | 1.13 | 1.09 | 1.07 | 1.15 | 1.2
EPLC-272H | 0.307 | 0.401 | 0.373 | 0.252 | 0.602 | 0.968 | 0.834 | 0.881 | 0.647 | 0.843 | 0.302 | 0.322 |  | 0.288 | 0.296 | 1.07 | 1.16 |  | 1.23 | 1.25
H3255 | 0.913 | 1.02 | 0.783 | 0.994 | 0.669 | 0.657 | 0.693 | 0.585 | 0.683 | 0.525 | 0.375 | 0.363 | 0.327 | 0.405 | 0.374 | 0.512 | 0.643 | 0.293 | 0.438 | 0.511
HARA | 0.767 | 0.604 | 0.606 | 0.303 | 0.199 | 0.783 | 0.819 | 0.741 |  | 0.391 | 0.412 | 0.476 | 0.412 | 0.396 | 0.379 | 1.17 | 1.08 | 1.17 | 1.13 | 1.22
HCC-15 | 0.362 | 0.33 | 0.281 | 0.348 | 0.288 | 0.924 | 0.825 | 0.856 | 0.531 | 0.579 | 0.515 | 0.524 |  | 0.44 | 0.501 | 0.778 | 0.737 |  | 0.756 | 0.742
HCC-44 | 0.894 | 1.08 | 1.01 | 0.906 | 0.901 | 0.714 | 0.772 | 0.75 | 0.532 | 0.636 | 0.159 |  | 0.168 | 0.226 | 0.353 | 1.03 | 0.955 | 0.911 | 0.997 | 1.02
